Measured values as given in article PMC6438725 (Arthritis & rheumatology (Hoboken, N.J.), 2019).
Several values for one entry are separate records, joined by “and”; a condition that tells them apart may be missing. Identical values can stand only once. Non-standard residues stand in square brackets, D forms with d. Residues, ends and D or L forms follow the SMILES beside them. No end group written: not given here. Cit = NC(=O)NCCC[C@H](N)C(=O)O

What follows are compounds tested against DR0401 (HLA-DRB1*04:01) (Homo sapiens, UniProt P01903+P01911, A100K/A169T/F76Y/I96L/K127E/L162R/M171V/N62H/P40V/Q125Y/R42H/S133A/S149N/S66Y/V115G/V209L/W38E) (assay: Peptide binding to DR0401). Conditions: not given.
For `CC[C@H](C)[C@H](NC(=O)[C@@H](NC(=O)[C@H](CCCNC(N)=O)NC(=O)[C@H](CC(C)C)NC(=O)[C@@H](NC(=O)[C@@H](NC(=O)[C@H](Cc1ccccc1)NC(=O)[C@@H](NC(=O)[C@H](Cc1c[nH]c2ccccc12)NC(=O)[C@H](CC(C)C)NC(=O)[C@H](CC(C)C)NC(=O)[C@@H](N)[C@@H](C)O)C(C)C)C(C)C)[C@@H](C)O)C(C)C)C(=O)N[C@H](C(=O)N[C@@H](C)C(=O)N[C@@H](C)C(=O)N[C@H](C(=O)N[C@H](C(=O)N[C@H](C(=O)O)C(C)C)[C@@H](C)O)C(C)C)[C@@H](C)O` [agg 3-20] (H-TLLWVFVTL[Cit]VITAAVTV-OH), the EC50 was 35.3 µM and 36.1 µM. `CC[C@H](C)[C@H](NC(=O)[C@@H]1CCCN1C(=O)[C@H](Cc1ccc(O)cc1)NC(=O)[C@H](CCCNC(N)=O)NC(=O)[C@@H](NC(=O)[C@H](CO)NC(=O)[C@H](CCCNC(N)=O)NC(=O)[C@H](CC(=O)O)NC(=O)[C@H](C)NC(=O)[C@H](CC(C)C)NC(=O)[C@H](Cc1c[nH]c2ccccc12)NC(=O)CNC(=O)[C@H](C)NC(=O)[C@@H](N)CO)C(C)C)C(=O)N[C@@H](CO)C(=O)N[C@@H](CCCCN)C(=O)O` [agg 298-313] (H-SAGWLAD[Cit]SV[Cit]YPISK-OH) was tested, and the EC50 was 1.9 µM and 2.94 µM. `CC(C)C[C@H](NC(=O)[C@H](CO)NC(=O)[C@H](Cc1ccc(O)cc1)NC(=O)[C@H](CCCNC(N)=O)NC(=O)[C@@H](NC(=O)[C@@H]1CCCN1C(=O)CNC(=O)[C@@H]1CCCN1C(=O)[C@H](CCCNC(N)=O)NC(=O)[C@H](Cc1ccc(O)cc1)NC(=O)[C@H](Cc1c[nH]cn1)NC(=O)[C@H](Cc1ccccc1)NC(=O)[C@@H](NC(=O)[C@@H](NC(=O)CN)C(C)C)C(C)C)[C@@H](C)O)C(=O)N[C@H](C(=O)N[C@@H](Cc1ccccc1)C(=O)O)[C@@H](C)O` [agg 477] (H-GVVFHY[Cit]PGPT[Cit]YSLTF-OH) was tested, and the EC50 was 14.7 µM and > 100 µM. In the case of `CC(C)C[C@H](NC(=O)[C@H](CCCNC(N)=O)NC(=O)[C@H](CC(=O)O)NC(=O)[C@@H](NC(=O)[C@H](Cc1ccccc1)NC(=O)[C@H](CS)NC(=O)[C@H](Cc1ccc(O)cc1)NC(=O)[C@@H](NC(=O)[C@@H](N)CC(=O)O)C(C)C)C(C)C)C(=O)N[C@@H](CCC(=O)O)C(=O)NCC(=O)N[C@@H](CCC(=O)O)C(=O)N[C@H](C(=O)N[C@@H](Cc1ccccc1)C(=O)N[C@@H](Cc1ccccc1)C(=O)N[C@@H](C)C(=O)O)C(C)C` [agg 568] (H-DVYCFVD[Cit]LEGEVFFA-OH), the EC50 is reported as 23.4 µM and 3.06 µM. In the case of `CC(C)C[C@H](NC(=O)[C@H](CCCNC(N)=O)NC(=O)[C@@H](NC(=O)[C@H](C)NC(=O)[C@H](Cc1ccccc1)NC(=O)[C@H](Cc1ccccc1)NC(=O)[C@@H](NC(=O)[C@@H](N)CCC(=O)O)C(C)C)[C@@H](C)O)C(=O)N[C@@H](CCC(=O)O)C(=O)N[C@@H](CCC(N)=O)C(=O)N[C@@H](Cc1ccccc1)C(=O)N[C@H](C(=O)N[C@@H](Cc1ccccc1)C(=O)N[C@@H](CCC(N)=O)C(=O)N[C@@H](CCC(=O)O)C(=O)O)[C@@H](C)O` [agg 579] (H-EVFFAT[Cit]LEQFTFQE-OH), the EC50 is reported as 78.4 µM and 15.3 µM. `CC[C@H](C)[C@H](NC(=O)[C@@H]1CCCN1C(=O)[C@H](Cc1ccc(O)cc1)NC(=O)[C@H](CCCNC(N)=O)NC(=O)[C@H](CC(C)C)NC(=O)[C@H](CO)NC(=O)CNC(=O)[C@H](CC(=O)O)NC(=O)[C@H](C)NC(=O)[C@H](CC(C)C)NC(=O)[C@H](Cc1c[nH]c2ccccc12)NC(=O)CNC(=O)[C@H](C)NC(=O)[C@H](Cc1ccc(O)cc1)NC(=O)[C@H](CS)NC(=O)[C@@H](N)CCCCN)C(=O)N[C@H](C(=O)O)C(C)C` [agg 621] (H-KCYAGWLADGSL[Cit]YPIV-OH) was tested, and the EC50 was 6.9 µM and 4.66 µM. `CC(C)C[C@H](NC(=O)[C@H](CS)NC(=O)[C@H](Cc1ccccc1)NC(=O)[C@@H]1CCCN1C(=O)[C@H](CO)NC(=O)[C@@H](N)CC(N)=O)C(=O)N[C@@H](CCC(=O)O)C(=O)N[C@@H](CCCNC(N)=O)C(=O)N[C@H](C(=O)N1CCC[C@H]1C(=O)N[C@@H](CC(C)C)C(=O)NCC(=O)N[C@@H](CO)C(=O)N1CCC[C@H]1C(=O)N[C@@H](CC(=O)O)C(=O)N1CCC[C@H]1C(=O)N[C@@H](C)C(=O)O)[C@@H](C)O` [agg 684] (H-NSPFCLE[Cit]TPLGSPDPA-OH) was tested, and the EC50 was 0.12 µM and 0.13 µM.

Same assay, conditions: data not shown
For “VVLLVATEG[Cit]VRVNSAYQDK [cit-Agg84, reference compound]”, the “Binding to DR0401 (in words)” value was “very low affinity”.
